Assay results: patent US7928099B2, “Pyrimido [4,5-D] azepine derivatives as 5-HT2c agonists” (Pfizer Inc, priority 2007, dated 2011)
pEC50: −log10 of the molar value.

Target: T1, human recombinant 5-HT2c receptor (Homo sapiens, UniProt P28335)
T1 construct: expressed in transfected cells; host or cells: CHO K1 (Chinese hamster ovary), stably transfected
T1 sequence (P28335 33-458): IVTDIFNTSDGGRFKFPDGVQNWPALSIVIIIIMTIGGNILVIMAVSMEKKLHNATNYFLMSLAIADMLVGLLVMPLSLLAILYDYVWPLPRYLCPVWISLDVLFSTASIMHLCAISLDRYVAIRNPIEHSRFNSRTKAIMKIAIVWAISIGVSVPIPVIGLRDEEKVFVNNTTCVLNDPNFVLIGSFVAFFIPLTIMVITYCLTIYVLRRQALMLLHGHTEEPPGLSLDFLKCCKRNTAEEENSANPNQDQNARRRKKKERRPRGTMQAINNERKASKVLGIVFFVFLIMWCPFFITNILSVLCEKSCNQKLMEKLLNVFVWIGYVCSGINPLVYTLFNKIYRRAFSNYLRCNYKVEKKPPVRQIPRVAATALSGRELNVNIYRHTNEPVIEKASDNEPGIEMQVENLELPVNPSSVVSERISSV
Experiment: FLIPR fluorescent Ca2+ mobilisation agonist assay in CHO K1 cells (Method 1)
Assay type: cell-based
Conditions: for pEC50: agonist affinity, FLIPR
Protocol: The compounds of the invention were evaluated for biological activity by measuring the agonist affinity (EC50) and efficacy (Emax) at the human recombinant 5-HT2c receptor expressed in CHO K1 cells, using a fluorescent based Ca^2+ mobilisation assay format compatible with FLIPR technology (Method 1). Additionally, the binding activity of a compound was determined by measuring its affinity for the human recombinant 5-HT2c receptor membranes from Swiss 3T3 cells (Method 2).
The agonist affinity of the compounds were tested by measuring their ability to induce a fluorescent based Ca^2+ mobilization signal in a FLIPR assay using CHO K1 cells expressing recombinant human 5-HT2C receptor. Both agonist affinity (EC50) and efficacy (Emax) were determined.
Chinese hamster ovary cells (CHO K1) stably transfected with the 5-HT2c receptor were cultured under standard cell culture techniques. Specifically, cells were grown at 37° C. and 5% CO2 in Dulbecco's Modified Eagle's Medium (DMEM) culture media supplemented with 10% dialysed foetal calf serum (FCS), 1% non-essential amino acids, 1 mM sodium pyruvate, 800 μg/mL geneticin and 50 μg/ml zeocin. Cells were harvested for passaging and storage using trypsin-EDTA, centrifugation and resuspension in culture medium. Cells were grown to 60-80% confluency, harvested and adjusted to 15-20×10^6 cells/ml/vial in medium/10% DMSO and stored long-term at −80° C.
Cells were seeded into black-walled clear-bottomed 384 well plates 24 h before use. Frozen cells were defrosted in a 37° C. water bath and immediately transferred into 1 mL/vial 37° C. culture medium, diluted to 10 ml and DMSO removed by centrifugation. The cells were resuspended in 15 ml/vial of cell culture medium, counted and adjusted to give 500,000 cells/mL (10,000 cells/well). […] of cell suspension was added to the 384 well plates which were then incubated overnight at 37° C.
The maximum agonist response was determined with 5-HT at a final assay concentration of 10 μM in the diluent above. The minimum response was determined with Dulbeccos PBS (+CaCl2, +MgCl2) with 0.9% DMSO and 0.05% pluronic F-127. Test compounds, maximum and minimum controls were added to a 384 well polypropylene plate.
The FLIPR calcium assay reagent was diluted with assay buffer (Hank's Balanced Salt Solution (HBSS))/20 mM HEPES and 2.5 mM probenecid (diluted with 1M Sodium hydroxide and DPBS (+CaCl2, +MgCl2)).
20 μl/well FLIPR calcium assay reagent was added to the cell plates, which were incubated for 1 h at 37° C. Cell plates and compound plates were then transferred onto the FLIPR. The assay was run using the appropriate FLIPR program, which initiates the reaction by transferring 15 μL compound into the corresponding, well of the cell plate.
The statistical parameter exported from each well was the max peak height of the response.

[1] = CHO-K1, efficacy, percentage of mean maximal response to 10 μM 5-HT
[2] = efficacy, percentage of mean maximal response to 10 μM 5-HT

| Emax [1] [%] | pEC50 | Compound | Emax % [2] [%] | Emax [2] [%] |
| --- | --- | --- | --- | --- |
| 64.7 | 6.72 | Clc1ccc(Cc2ncc3c(n2)CCNCC3)cc1 [Example 57, 2-(4-Chlorobenzyl)-6,7,8,9-tetrahydro-5H-pyrimido[4,5-d]azepine] | – | – |
| 67.1 | 6.90 | Fc1cccc(Cc2ncc3c(n2)CCNCC3)c1 [Example 61, 2-(3-Fluorobenzyl)-6,7,8,9-tetrahydro-5H-pyrimido[4,5-d]azepine] | – | – |
| 63.1 | 7.00 | Cc1ccc(Cc2ncc3c(n2)CCNCC3)cc1 [Example 64, 2-(4-Methylbenzyl)-6,7,8,9-tetrahydro-5H-pyrimido[4,5-d]azepine] | – | – |
| 70.3 | 6.89 | Cc1ncccc1COc1nc(Cc2ccccc2)nc2c1CCNCC2 [Example 77, 2-benzyl-4-[(2-methyl-pyridin-3-yl)methoxy]-6,7,8,9-tetrahydro-5H-pyrimido[4,5-d]azepine] | – | – |
| 45.7 | 6.47 | CC(COc1nc(Cc2ccccc2)nc2c1CCNCC2)N(C)C (stereo not shown) [Example 83, 1-[(2-benzyl-6,7,8,9-tetrahydro-5H-pyrimido-[4,5-d]azepin-4-yl)oxy]-N,N-dimethylpropan-2-amine] | – | – |
| 42.8 | 6.27 | CCNc1nc2c(c(N(C)CC3CC3)n1)CCNCC2 [Example 112, N-4-(cyclopropylmethyl)-N-2-ethyl-N-4-methyl-6,7,8,9-tetrahydro-5H-pyrimido[4,5-d]azepine-2,4-diamine] | – | – |
| 74.3 | 6.76 | CCN(C)c1nc2c(c(NC)n1)CCNCC2 [Example 102, N-2-ethyl-N-2,N-4-dimethyl-6,7,8,9-tetra-hydro-5H-pyrimido[4,5-d]-azepine-2,4-diamine] | – | – |
| 44.4 | 6.83 | c1ccc(CNc2nc(N3CCC3)nc3c2CCNCC3)cc1 [Example 108, 2-azetidin-1-yl-N-benzyl-6,7,8,9-tetrahydro-5H-pyrimido[4,5-d]azepin-4-amine] | – | – |
| 71.9 | 6.52 | CC(CN1CCOCC1)Oc1nc(Cc2ccccc2)nc2c1CCNCC2 (stereo not shown) [Example 82, 2-benzyl-4-(1-methyl-2-morpholin-4-ylethoxy)-6,7,8,9-tetrahydro-5H-pyrimido[4,5-d]azepine] | – | – |
| 49.9 | 6.49 | CCN(C)c1nc2c(c(NCC(C)C)n1)CCNCC2 [Example 101, N-2-ethyl-N-4-isobutyl-N-2-methyl-6,7,8,9-tetra-hydro-5H-pyrimido[4,5-d]azepine-2,4-diamine] | – | – |
| 69.5 | 6.86 | CN1CCC[C@H]1COc1nc(Cc2ccccc2)nc2c1CCNCC2 [Example 78, 2-benzyl-4-{[(2S)-1-methylpyrrolidin-2-yl]methoxy}-6,7,8,9-tetrahydro-5H-pyrimido[4,5-d]azepine] | – | – |
| 48.2 | 7.47 | CCCCNc1nc(N2CCSCC2)nc2c1CCNCC2 [Example 89, N-butyl-2-thiomorpholin-4-yl-6,7,8,9-tetrahydro-5H-pyrimido[4,5-d]-azepin-4-amine] | – | – |
| 67.6 | 6.08 | c1ccc2c(c1)CCN(c1nc3c(c(N4CCSCC4)n1)CCNCC3)C2 [Example 88, 2-(3,4-dihydroisoquinolin-2(1H)-yl)-4-thiomorpholin-4-yl-6,7,8,9-tetrahydro-5H-pyrimido[4,5-d]-azepin-4-amine] | – | – |
| 77.3 | 7.05 | CCN(C)c1nc(N2CCSCC2)nc2c1CCNCC2 [Example 92, N-ethyl-N-methyl-2-thiomorpholin-4-yl-6,7,8,9-tetrahydro-5H-pyrimido-[4,5-d]azepin-4-amine] | – | – |
| 80.8 | 6.58 | C1Cc2nc(N3CCSCC3)nc(N3CCSCC3)c2CCN1 [Example 94, 2,4-dithiomorpholin-4-yl-6,7,8,9-tetrahydro-5H-pyrimido[4,5-d]azepine] | – | – |
| 57.1 | 7.32 | CCNc1nc(N2CCc3ccccc3C2)nc2c1CCNCC2 [Example 87, 2-(3,4-dihydroisoquinolin-2(1H)-yl)-N-ethyl-6,7,8,9-tetrahydro-5H-pyrimido-[4,5-d]azepin-4-amine] | – | – |
| 87.7 | 6.61 | C1Cc2nc(NC3CC3)nc(N3CCSCC3)c2CCN1 [Example 109, N-cyclopropyl-4-thio-morpholin-4-yl-6,7,8,9-tetrahydro-5H-pyrimido-[4,5-d]azepin-2-amine] | – | – |
| 43.2 | 6.44 | CN(C)c1nc2c(c(N(C)C)n1)CCNCC2 [Example 107, N,N,N′,N′-tetramethyl-6,7,8,9-tetrahydro-5H-pyrimido[4,5-d]azepine-2,4-diamine] | – | – |
| 64.1 | 6.69 | CN(Cc1ccccc1)c1nc2c(c(N3CCOCC3)n1)CCNCC2 [Example 105, N-benzyl-N-methyl-4-morpholin-4-yl-6,7,8,9-tetrahydro-5H-pyrimido-[4,5-d]azepin-2-amine] | – | – |
| 86.3 | 6.38 | CN1CCC(COc2nc(Cc3ccccc3)nc3c2CCNCC3)CC1 [Example 85, 2-benzyl-4-[(1-methyl-piperidin-4-yl)methoxy]-6,7,8,9-tetrahydro-5H-pyrimido[4,5-d]azepine] | – | – |
| – | – | CNc1nc(C(C)c2ccccc2)nc2c1CCNCC2 (stereo not shown) [Example 3, N-methyl-2-(1-phenylethyl)-6,7,8,9-tetrahydro-5H-pyrimido[4,5-d]azepin-4-amine] | – | 60.8 |
| 69.5 | 6.99 | CCN(C)c1nc2c(c(NCC3CC3)n1)CCNCC2 [Example 99, N-4-(cyclopropylmethyl)-N-2-ethyl-N-2-methyl-6,7,8,9-tetrahydro-5H-pyrimido[4,5-d]azepin-4-amine] | – | – |
| 38.8 | 6.22 | c1ccc(CCNc2nc3c(c(N4CCSCC4)n2)CCNCC3)cc1 [Example 110, N-(2-phenylethyl)-4-thiomorpholin-4-yl-6,7,8,9-tetrahydro-5H-pyrimido[4,5-d]azepin-2-amine] | – | – |
| 65.1 | 6.71 | Fc1ccccc1Cc1ncc2c(n1)CCNCC2 [Example 60, 2(2-Fluorobenzyl)-6,7,8,9-tetrahydro-5H-pyrimido[4,5-d]azepine] | – | – |
| 86.7 | 7.77 | c1ccc(Cc2nc3c(c(OCC4CCCO4)n2)CCNCC3)cc1 (stereo not shown) [Example 74, 2-benzyl-4-(2-tetra-hydrofuran-2-ylmethoxy)-6,7,8,9-tetrahydro-5H-pyrimido[4,5-d]azepine] | – | – |
| 90.1 | 7.24 | N#Cc1ccc(CCOc2nc(Cc3ccccc3)nc3c2CCNCC3)cc1 [Example 75, 4-{2-[(2-benzyl-6,7,8,9-tetrahydro-5H-pyrimido-[4,5-d]azepin-4-yl)oxy]ethyl}-benzonitrile] | – | – |
| 66.9 | 6.51 | C1Cc2nc(N3CCOCC3)nc(N3CCSCC3)c2CCN1 [Example 96, 2-morpholin-4-yl-4-thio-morpholin-4-yl-6,7,8,9-tetrahydro-5H-pyrimido-[4,5-d]azepin-4-amine] | – | – |

| Compound | Emax [1] [%] | pEC50 | Emax % [2] [%] | Emax [2] [%] |
| --- | --- | --- | --- | --- |
| CC(C)COc1nc(Cc2ccccc2)nc2c1CCNCC2 [Example 76, 2-benzyl-4-isobutoxy-6,7,8,9-tetrahydro-5H-pyrimido[4,5-d]azepine] | 34 | 6.90 | – | – |
| N-benzyl-N-methyl-6,7,8,9-tetrahydro-5H-pyrimido[4,5-d]azepin-2-amine hydrochloride [Example 49] | – | 6.74 | 71.20 | – |
| FC(F)(F)CCCOc1nc(Cc2ccccc2)nc2c1CCNCC2 [Example 84, 2-benzyl-4-(4,4,4-trifluorobutoxy)-6,7,8,9-tetrahydro-5H-pyrimido[4,5-d]azepine] | 36.4 | 6.40 | – | – |
| CC(C)(C)OCCOc1nc(Cc2ccccc2)nc2c1CCNCC2 [Example 81, 2-benzyl-4-(2-tert-butoxyethoxy)-6,7,8,9-tetrahydro-5H-pyrimido[4,5-d]azepine] | 60.3 | 6.71 | – | – |
